Data published in PubChem BioAssay (NCI).
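Following 48 hours of exposure in 96-well plates, responses at five concentrations were used to interpolate endpoints linearly. The concentration for 50% growth inhibition is given as GI50. The concentration for full growth arrest is given as TGI.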

Legend:
Assay in all cases: growth of human tumour cells (NCI), 48 h; in the data active = GI50 below about 0.43 µM; inactive = the rest
[1] = system: HCC-2998 colon
[2] = system: LXFL 529 NSCLC
[3] = system: HOP-18 NSCLC
[4] = system: DMS 273 small cell lung
[5] = system: SNB-78 CNS
[6] = system: SW-620 colon
[7] = system: M19-MEL melanoma
[8] = system: KM20L2 colon
[9] = system: T-47D breast
[10] = system: MDA-MB-231 breast

O=C1C2c3[nH]c4ccccc4c3C3CCC(c4ccccc4)CC3C2C(=O)N1c1ccccc1 (configuration not stated)
> 100 µM: TGI [1] | TGI [2] | TGI [3] | TGI [4] | TGI [5] | TGI [6] | TGI [7]

CC[C@@]1(O)C(=O)OCc2c1cc1n(c2=O)Cc2cc3c([N+](=O)[O-])c(O)ccc3nc2-1
inactive: GI50 [1] 2.02 µM | GI50 [2] 4.33 µM | GI50 [8] 1.97 µM | GI50 [3] 0.758 µM | GI50 [5] 6.6 µM | GI50 [7] 0.655 µM
13.1 µM: TGI [1]
33.8 µM: TGI [6]
2.02 µM: TGI [4]
11.9 µM: TGI [7]
> 100 µM: TGI [2] | TGI [3] | TGI [5]
active: GI50 [4] 0.0605 µM | GI50 [6] 0.416 µM
38.4 µM: TGI [8]

COc1cccc(-c2cc(C(=O)Nc3ccc(Cl)cc3)nc(N)n2)c1
> 100 µM: TGI [1] | TGI [2] | TGI [8] | TGI [3] | TGI [4] | TGI [5] | TGI [6] | TGI [7]

CO[C@H](C(=O)O[C@H]1C(=O)N2CCC3CCC1C32C)c1ccccc1 (some centres not stated)
> 100 µM: TGI [1] | TGI [2] | TGI [8] | TGI [3] | TGI [5] | TGI [6] | TGI [7]

Clc1cc(Cl)cc(C2SCc3nc4ccccc4n32)c1 (configuration not stated)
67.8 µM: TGI [3]
33.6 µM: TGI [6]
60.1 µM: TGI [5]
22.4 µM: TGI [4]
36.3 µM: TGI [2]

CCOc1cccc2sc(N)nc12
> 100 µM: TGI [1] | TGI [2] | TGI [8] | TGI [3] | TGI [4] | TGI [5] | TGI [6] | TGI [7]

Cc1cc(N(CCC#N)CCC#N)ccc1/C=C(\NC(=O)/C=C/c1ccccc1)NC(=O)Nc1ccccc1C
> 100 µM: TGI [1] | TGI [2] | TGI [8] | TGI [4] | TGI [5] | TGI [6] | TGI [7]

CCCCCCCCCCCCCCCCSS(C)(=O)=O
> 100 µM: TGI [3] | TGI [10]
> 66.1 µM: TGI [8]
26.3 µM: TGI [2]
24.1 µM: TGI [9]
> 72.5 µM: TGI [1]
42.7 µM: TGI [4]
13.2 µM: TGI [6]

C=CCNC(=O)ON1C(=O)CCC1=O
> 100 µM: TGI [1] | TGI [2] | TGI [8] | TGI [3] | TGI [4] | TGI [5] | TGI [6] | TGI [7]

NC(N)=NS(=O)(=O)c1ccc(NC(=O)c2cccn3c(=O)c4ccccc4nc23)cc1
63.7 µM: TGI [8]
> 100 µM: TGI [1] | TGI [2] | TGI [3] | TGI [4] | TGI [5] | TGI [6] | TGI [7]

COC(=O)CCC(=O)Nc1cccc(C(F)(F)F)c1
> 100 µM: TGI [1] | TGI [2] | TGI [8] | TGI [3] | TGI [4] | TGI [5] | TGI [6] | TGI [7]

O=C(/C=C/c1ccc[nH]1)c1ccccc1
> 100 µM: TGI [2] | TGI [8] | TGI [3] | TGI [4] | TGI [5] | TGI [6] | TGI [7]

CC(C)COC(=O)N1N=NC2C3CC(=O)C(O3)C21 (configuration not stated)
> 100 µM: TGI [1] | TGI [2] | TGI [8] | TGI [3] | TGI [4] | TGI [5] | TGI [6] | TGI [7]

Clc1cc2nc[nH]c2cc1Cl
> 100 µM: TGI [1] | TGI [2] | TGI [3] | TGI [4] | TGI [5] | TGI [6] | TGI [7]
